Assay [1] deals with Bifidobacterium infantis strain PB-STR-093. The following applies: expected value based on the EFSA standards; cited from earlier work.
Assay [2] shares this test system. Put plainly: Antibiotic susceptibility (MIC) of isolated strains, EFSA standards. The class given is cell-based. The following applies: observed value. As to the method:
In alternative embodiments the complete genome sequence of each organism is screened to ensure it contains no genes or pathogenicity island gene clusters encoding known virulence factors, toxins, or antibiotic resistance functions, using publicly available databases such as DBETH55 (for example, see Chakraborty A, et al. (2012) Nucleic Acids Res. 40:615-620) and VFDB56 (Chen L, et al. (2005) Nucleic Acids Res. 33:325-328). Each organism is evaluated by standard antibiotic sensitivity profile techniques such as broth microdilution susceptibility panels or plate-based methods such as disk diffusion method and antimicrobial gradient method (James H. Jorgensen and Mary Jane Ferraro 2009 Clinical Infectious Diseases 49:1749-1755). Such tests determine the minimal inhibitory concentration (MIC) of an antibiotic on microbial growth. Antibiotics evaluated include but are not limited to amoxicillin, amoxicillin/clavulanic acid, carbapenem, methicillin, ampicillin, gentamicin, metronidazole, vancomycin, and neomycin. MIC determinations of novel microbes are compared to published values for both sensitive and resistant related strains to make an assessment on sensitivity (CLSI Guideline M45: Methods for Antimicrobial Dilution and Disk Susceptibility Testing of Infrequently Isolated or Fastidious Bacteria. Wayne, PA; 2015) to determine possible relative increases in antibiotic resistance.

In assay [3] the test system is simulated gut environment. Put plainly: Simulated gut environment: community composition after introduction of bacteria and/or prebiotics (whole genome sequencing). The note with it: B. infantis combined with lacto-N-tetraose (LNT). The class given is cell-based, human.
The next assay has as its system Escherichia coli. As to the kind of experiment: Simulated gut environment: levels of potentially pathogenic bacteria. It is filed as cell-based. The note with it: LNT as carbon source together with B. infantis. As to the method:
(§1) To understand the applicability of in vitro observations to the human gut, strains are evaluated in the context of a simulated gut environment. These gut environments are produced with minimal media and seeded with FMT aliquots (Example 2) to reproduce an environment that represents the gut. In these environments, the introduction of prebiotics (in the form of carbon sources, nitrogen sources, and other small molecules) and the introduction of bacteria can be used to shift the community composition, metabolic output, and immunological impact of the gut environments. This allows prebiotic, probiotic, and synbiotic (prebiotic and, probiotic) combinations to be rapidly evaluated to confirm or reject observations determined in simpler systems such as single strain microbial cultures. In subsequent embodiments, machine learning will be used to further reduce the space that must be explored experimentally.

Assay [4] deals with Streptococcus vestibularis. Described as above. It is filed as cell-based. The following applies: LNT as carbon source together with B. infantis. As to the method: as §1
Assay [5] in a line: Growth (OD600) of isolated microbial strains on medium with different carbon sources. The class given is cell-based. Here is the method:
The growth of isolated strains is evaluated to determine their ability to consume carbon sources and produce specific metabolites. Strains are grown in a minimal media (for example 2 grams (2 ml fine) peptone water (peptone, 10 g/L sodium chloride, 5 g/L), 2 grams yeast extract, 2 grams NaHCO3, 0.1 g NaCl, 0.04 g K2HPO4, 0.04 g KH2PO4, 0.01 g MgSO4·7H2O, 0.01 g CaCl2·6H2O, 2 ml Tween 80, 10 g carbohydrate of choice, 10 μl vitamin K, 0.5 g cysteine, 0.5 g bile salts) that affords control over carbon source. Examples of carbon sources evaluated (independently or in combination) include but are not limited to glucose, lactose, galactose, fructose, xylose, galactooligosaccharides, fructooligosaccharides, xylooligosaccharides, lacto-N-tetraose, lacto-N-neotetraose, 2′-fucosyllactose, 3-fucosyllactose, 3′-sialyllactose, and 6′-sialyllactose. Growth is evaluated by determination of the OD600, which can be performed either on individual samples with a cuvette or tube-based spectrometer (for example the CO 75000™ colorimeter) or on multiple samples in a plate-based format using a plate reader (for example CYTATION 3™). In both cases, values are normalized based on signals from media alone.
Select bacteria were evaluated for their ability to consume different carbon sources to aid in selection of live biotherapeutic (probiotic) bacteria and combinations, mixes and consortia of bacteria as provided herein, and prebiotic combinations (see Table 6) used in compositions and methods as provided herein;

On to `CC1(C)S[C@@H]2[C@H](NC(=O)[C@H](N)c3ccccc3)C(=O)N2[C@H]1C(=O)O` [Ampicillin], for which the “Expected Antibiotic MIC” value in assay [1] is on record as 2 mg/L. Moreover, the “Observed Antibiotic MIC” value in assay [2] is on record as 2 mg/L.

As to `O=C(N[C@H](CO)[C@H](O)c1ccc([N+](=O)[O-])cc1)C(Cl)Cl` [Chloramphenicol], the “Expected Antibiotic MIC” value in assay [1] was 4 mg/L. Further, the “Observed Antibiotic MIC” value in assay [2] is reported as 4 mg/L.

Turning to `CCC[C@@H]1C[C@@H](C(=O)N[C@@H]([C@H]2O[C@H](SC)[C@H](O)[C@@H](O)[C@H]2O)[C@H](C)Cl)N(C)C1` [Clindamycin], the “Observed Antibiotic MIC” value in assay [2] was determined as 0.125 mg/L.

For the compound `CC[C@H]1OC(=O)[C@H](C)[C@@H](O[C@H]2C[C@@](C)(OC)[C@@H](O)[C@H](C)O2)[C@H](C)[C@@H](O[C@@H]2O[C@H](C)C[C@H](N(C)C)[C@H]2O)[C@](C)(O)C[C@@H](C)C(=O)[C@H](C)[C@@H](O)[C@]1(C)O` [Erythromycin], the “Expected Antibiotic MIC” value in assay [1] is reported as 1 mg/L. The “Observed Antibiotic MIC” value in assay [2] is recorded as 1 mg/L.

Consider `CC(=O)N[C@H]1[C@H](O[C@H]2[C@@H](O)[C@@H](CO)O[C@@H](O[C@H]3[C@H](O)[C@@H](O)C(O)O[C@@H]3CO)[C@@H]2O)O[C@H](CO)[C@@H](O)[C@@H]1O[C@@H]1O[C@H](CO)[C@H](O)[C@H](O)[C@H]1O` (some centres unmarked) [LNT, lacto-N-tetraose], for which the “growth, engraftment and abundance of Bifidobacterium infantis in the sample” value in assay [3] was “further boosts the abundance of Bifidobacterium infantis”. The “level of Escherichia coli in simulated gut environment” value with Escherichia coli was “further reduces the presence of these bacteria”. Also, the “level of Streptococcus vestibularis in simulated gut environment” value in assay [4] is reported as “further reduces the presence of these bacteria”.

Regarding `[H]/N=C(/N)N[C@H]1[C@H](O)[C@@H](O)[C@H](O[C@@H]2O[C@@H](C)[C@](O)(C=O)[C@H]2O[C@@H]2O[C@@H](CO)[C@H](O)[C@@H](O)[C@@H]2NC)[C@@H](N/C(N)=N\[H])[C@@H]1O` [Streptomycin], the “Expected Antibiotic MIC” value in assay [1] was 128 mg/L. Moreover, the “Observed Antibiotic MIC” value in assay [2] stood at 32 mg/L.

On to `CN(C)[C@@H]1C(O)=C(C(N)=O)C(=O)[C@@]2(O)C(O)=C3C(=O)c4c(O)cccc4[C@@](C)(O)[C@H]3C[C@@H]12` [Tetracycline], for which the “Observed Antibiotic MIC” value in assay [2] turned out to be 4 mg/L.

For `CN[C@H](CC(C)C)C(=O)N[C@H]1C(=O)N[C@@H](CC(N)=O)C(=O)N[C@H]2C(=O)N[C@H]3C(=O)N[C@H](C(=O)N[C@H](C(=O)O)c4cc(O)cc(O)c4-c4cc3ccc4O)[C@H](O)c3ccc(c(Cl)c3)Oc3cc2cc(c3O[C@@H]2O[C@H](CO)[C@@H](O)[C@H](O)[C@H]2O[C@H]2C[C@](C)(N)[C@H](O)[C@H](C)O2)Oc2ccc(cc2Cl)[C@H]1O` [Vancomycin], the “Expected Antibiotic MIC” value in assay [1] is 2 mg/L. In addition, in assay [2], the “Observed Antibiotic MIC” value was 0.5 mg/L.

Take Bacteroides fragilis: the “OD(600) after 24 hours growth” value in assay [5] (carbon source 2′-FL) came to 0.261; in assay [5] (carbon source 3′-SL), 0.457; in assay [5] (carbon source FOS), 0.433; in assay [5] (carbon source GOS), 0.325; in assay [5] (carbon source Glucose), 0.353; in assay [5] (carbon source LNT) it was 0.337. Moreover, the figures for the “OD(600) after 24 hours growth” value in assay [5] (carbon source Mucin), in assay [5] (carbon source XOS) and in assay [5] (medium with No Carbohydrate) were 0.186, 0.359 and 0.073, respectively.

For Gentamicin, the “Expected Antibiotic MIC” value in assay [1] is recorded as 64 mg/L. The “Observed Antibiotic MIC” value in assay [2] was determined as 64 mg/L.

These data come from US20260231998A1, “COMPOSITIONS FOR MODULATING GUT MICROFLORA POPULATIONS, TREATMENT OF DYSBIOSIS AND DISEASE PREVENTION, AND METHODS FOR MAKING AND USING SAME” (PERSEPHONE BIOSCIENCES, INC., priority 2023, published 2026).
